This is an account of results in patent publication US20250346579A1, “PYRIDAZINONE COMPOUND AND PREPARATION METHOD THEREFOR, PHARMACEUTICAL COMPOSITION THEREOF, AND APPLICATION THEREOF” (CHINA PHARMACEUTICAL UNIVERSITY, priority 2021, published 2025).

The assay has as its target T1, PARP7 (Homo sapiens, UniProt Q7Z3E1).
T1 construct: purchased BPS Bioscience
T1 sequence (Q7Z3E1 1-657): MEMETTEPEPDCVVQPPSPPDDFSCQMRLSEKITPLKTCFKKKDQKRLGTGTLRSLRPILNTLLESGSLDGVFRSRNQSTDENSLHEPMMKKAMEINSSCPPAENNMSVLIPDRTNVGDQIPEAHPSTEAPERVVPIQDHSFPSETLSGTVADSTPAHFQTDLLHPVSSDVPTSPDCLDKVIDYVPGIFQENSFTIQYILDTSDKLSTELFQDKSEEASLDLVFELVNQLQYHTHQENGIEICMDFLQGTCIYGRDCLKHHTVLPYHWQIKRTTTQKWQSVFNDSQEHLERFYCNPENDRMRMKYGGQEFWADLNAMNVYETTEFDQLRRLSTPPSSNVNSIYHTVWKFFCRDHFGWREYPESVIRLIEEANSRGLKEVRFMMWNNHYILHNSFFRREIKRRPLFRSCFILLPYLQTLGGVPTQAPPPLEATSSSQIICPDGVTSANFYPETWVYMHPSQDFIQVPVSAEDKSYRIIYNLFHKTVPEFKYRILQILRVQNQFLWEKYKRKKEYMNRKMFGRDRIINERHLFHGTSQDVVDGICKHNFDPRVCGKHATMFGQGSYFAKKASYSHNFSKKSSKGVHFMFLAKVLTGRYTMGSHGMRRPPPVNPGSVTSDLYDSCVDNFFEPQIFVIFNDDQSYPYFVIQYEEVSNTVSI
In words: Inhibitory activity of compounds on PARP7 enzyme (PARP7 Chemiluminescent Assay Kit). The class given is biochemical. On the procedure: Experimental materials: PARP7 Chemiluminescent Assay Kit, BPS Bioscience; DMSO, China National Pharmaceutical Group, Nivo, PerkinElmer.
(1) Preparation of Solutions and Buffers:
Preparation of 10×PBS: 720 mg of KH2PO4, 45 g of NaCl and 5.311 g of Na2HPO4·12H2O were weighed respectively and dissolved in 500 mL of deionized water, a system pH value was adjusted to 7.4, sterilization was performed at 121° C. for 30 min, and the system after cooling was placed at 4° C. for later use.
Preparation of 1×PBS: 10×PBS was diluted 10 times with deionized water, that is, 9 parts of deionized water was added to 1 part of 10×PBS for dilution.
Preparation of wash buffer: 1×PBS contained 0.05% Tween-20.
Preparation of 1×PARP buffer (prepared freshly before use): 10×PARP buffer was diluted 10 times with deionized water and placed on ice for later use.
(2) Preparation of Compound Working Solution Concentration:
According to test requirements, a compound to be tested is diluted with 100% DMSO to a desired concentration, and then diluted 10 times with 1×PARP buffer to prepare a 10× compound working solution.
a. 5× histone mixture was thawed on ice one day prior to the experiment;
b. preparation of 1× histone mixture: 1× histone mixture was prepared through the 5× histone mixture by using 1×PBS; and 25 μL of 1× histone mixture was taken from each well and transferred into a test well plate and incubated overnight at 4° C.;
c. 100 μL of Blocking buffer was taken from each well and added to the test well plate and incubated for 90 min at 25° C.;
d. after the incubation was completed, the liquid in the test well plate was spin-dried, and the test well plate was washed repeatedly for 3 times;
e. 2.5 μL of the compound working solution was taken from each well and added to the test well plate according to an experimental layout diagram; and 1×PARP buffer with a corresponding volume of 10% DMSO was added to positive control wells (Positive Control), and 1×PARP buffer of a corresponding volume was added to blank control wells (Blank);
f. after the enzyme was completely dissolved, an enzyme stock solution was diluted with 1×PARP buffer to 6 ng/μL;
g. 10 μL of enzyme solution was taken from each well and added to the test well plate, the blank control wells were added with the corresponding volume of 1×PARP buffer, and in which case, the enzyme amount was 60 ng per well. Note: this step needs to be performed on ice;
h. 12.5 μL of master mixture was added to each well of the test well plate (12.5 μL master mixture included 1.25 μL of 10×PARP buffer, 1.25 μL of Opti-PARP 10× Assay mixture and 10 μL of water); the test well plate was sealed and incubated at 25° C. for 60 min;
i. after the incubation was completed, the liquid in the test well plate was spin-dried, and the test well plate was washed repeatedly for 3 times;
j. Streptavidin-HRP in a kit was diluted 50 times with a Blocking buffer, 25 μL was taken from each well and added to the test well plate, and incubated at 25° C. for 30 min;
k. after the incubation was completed, the liquid in the test well plate was spin-dried, and the test well plate was washed repeatedly for 3 times;
l. ELISA ECL Substrate A and ELISA ECL Substrate B in the kit was mixed to obtain a mixed solution according to a ratio of 1:1, 50 μL of the mixed solution was added to each well of the test well plate, Nivo was used to perform Luminescence detection immediately, and a luminous value (RLU) was read; and
m. calculation of an enzyme rate: Enzyme Activity=(RLU(Sample)−RLU(Blank))/(RLU(Pos.Ctrl)−RLU(Blank))×100%; and enzyme inhibition rate=1−% Enzyme Activity, and specific results were shown in Table 1 below.

Where [1] appears, read: chemiluminescence, symbols defined as IC50 classes, read-out: 100 nM Inhibition Rate.
The mark [2] stands for this setting: summary of Table 1, read-out: enzyme inhibition IC50 values.

Like-named read-outs stand apart in the source and are kept apart here.

Consider `C[C@@H](CN1CC(C(=O)N2CCN(c3ncccn3)CC2)C1)Nc1cn[nH]c(=O)c1C(F)(F)F` [I-A-14, (S)-5-((1-(3-(4-(pyrimidin-2-yl)piperazine-1-carbonyl)azetidin-1-yl)propan-2-yl)amino)-4-(trifluoromethyl)pyridazin-3(2H)-one], for which the IC50 under setting [1] lay within 100 to 500 nM.

As to `C[C@@H](CN1CC(C(=O)NC2CN(c3ncc(C(F)(F)F)cn3)C2)C1)Nc1cn[nH]c(=O)c1C(F)(F)F` [I-A-15, (S)-1-(2-((6-oxo-5-(trifluoromethyl)-1,6-dihydropyridazin-4-yl)amino)propyl)-N-(1-(5-(trifluoromethyl)pyrimidin-2-yl)azetidin-3-yl)azetidine-3-carboxamide], under setting [1], the IC50 was below 100 nM.

As for `C[C@@H](CN1CC(C(=O)N(C)C2CN(c3ncc(C(F)(F)F)cn3)C2)C1)Nc1cn[nH]c(=O)c1C(F)(F)F` [I-A-16, (S)-N-methyl-1-(2-((6-oxo-5-(trifluoromethyl)-1,6-dihydropyridazin-4-yl)amino)propyl)-N-(1-(5-(trifluoromethyl)pyrimidin-2-yl)azetidin-3-yl)azetidine-3-carboxamide], the IC50 under setting [1] is below 100 nM.

On to `CC1CN(c2ncc(C(F)(F)F)cn2)CC(C)N1C(=O)C1CN(C[C@H](C)Nc2cn[nH]c(=O)c2C(F)(F)F)C1` (stereo partly drawn) [I-A-17, 5-(((2S)-1-(3-(2,6-dimethyl-4-(5-(trifluoromethyl)pyrimidin-2-yl)piperazine-1-carbonyl)azetidin-1-yl)propan-2-yl)amino)-4-(trifluoromethyl)pyridazin-3(2H)-one], for which the IC50 under setting [1] was below 100 nM.

Consider `C[C@@H](CN1CC[C@H](C(=O)N2CCN(c3ncc(C(F)(F)F)cn3)CC2)C1)Nc1cn[nH]c(=O)c1C(F)(F)F` [I-A-18, 4-(trifluoromethyl)-5-(((2S)-1-(3-(4-(5-(trifluoromethyl)pyrimidin-2-yl)piperazine-1-carbonyl)pyrrolidin-1-yl)propan-2-yl)amino)pyridazin-3(2H)-one], for which the IC50 under setting [1] lay in the range of 100 to 500 nM.

On to `C[C@@H](CN1CCC(C(=O)N2CCN(c3ncc(C(F)(F)F)cn3)CC2)CC1)Nc1cn[nH]c(=O)c1C(F)(F)F` [I-A-19, (S)-4-(trifluoromethyl)-5-((1-(4-(4-(5-(trifluoromethyl)pyrimidin-2-yl)piperazine-1-carbonyl)piperidin-1-yl)propan-2-yl)amino)pyridazin-3(2H)-one], for which the IC50 under setting [1] fell in the range of 100 to 500 nM.

Regarding `O=C(C1CN(CCNc2cn[nH]c(=O)c2C(F)(F)F)C1)N1CCN(c2ncc(C(F)(F)F)cn2)CC1` [I-A-20, 4-(trifluoromethyl)-5-((2-(3-(4-(5-(trifluoromethyl)pyrimidin-2-yl)piperazine-1-carbonyl)azetidin-1-yl)ethyl)amino)pyridazin-3(2H)-one], the IC50 by setting is: under setting [1], below 100 nM; under setting [2], below 100 nM.

With `C[C@@H](CCN1CC(C(=O)N2CCN(c3ncc(C(F)(F)F)cn3)CC2)C1)Nc1cn[nH]c(=O)c1C(F)(F)F` [I-A-21, (S)-4-(trifluoromethyl)-5-((4-(3-(4-(5-(trifluoromethyl)pyrimidin-2-yl)piperazine-1-carbonyl)azetidin-1-yl)butan-2-yl)amino)pyridazin-3(2H)-one], the IC50 under setting [1] was in the range of 100 to 500 nM.

As for `C[C@@H](CN1CC(C(=O)N2CCN(c3ncc(C(F)(F)F)cn3)CC2)C1)Nc1cn[nH]c(=O)c1Cl` [I-A-22, (S)-4-chloro-5-((1-(3-(4-(5-(trifluoromethyl)pyrimidin-2-yl)piperazine-1-carbonyl)azetidin-1-yl)propan-2-yl)amino)pyridazin-3(2H)-one], the IC50 under setting [1] fell in the range of 100 to 500 nM.

For the compound `C[C@@H](CN1CC(C(=O)N2CCN(c3ncc(C(F)(F)F)cn3)CC2)C1)Nc1cn[nH]c(=O)c1Br` [I-A-23, (S)-4-bromo-5-((1-(3-(4-(5-(trifluoromethyl)pyrimidin-2-yl)piperazine-1-carbonyl)azetidin-1-yl)propan-2-yl)amino)pyridazin-3(2H)-one], the IC50 under setting [1] was 100 to 500 nM.

As to `O=C(C1CN(CC2(Nc3cn[nH]c(=O)c3C(F)(F)F)CC2)C1)N1CCN(c2ncc(C(F)(F)F)cn2)CC1` [I-A-24, 4-(trifluoromethyl)-5-((1-((3-(4-(5-(trifluoromethyl)pyrimidin-2-yl)piperazine-1-carbonyl)azetidin-1-yl)methyl)cyclopropyl)amino)pyridazin-3(2H)-one], under setting [1], the IC50 fell in the range of 100 to 500 nM.

Turning to `C[C@@H](CN1CC(C(=O)N2CCN(c3ccc4c(c3)OC(F)(F)O4)CC2)C1)Nc1cn[nH]c(=O)c1C(F)(F)F` [I-B-1, (S)-5-((1-(3-(4-(2,2-difluorobenzo[d][1,3]dioxol-5-yl)piperazine-1-carbonyl)azetidin-1-yl)propan-2-yl)amino)-4-(trifluoromethyl)pyridazin-3(2H)-one], the IC50 by setting is: under setting [1], below 100 nM; under setting [2], below 100 nM.

In the case of `C[C@@H](Cn1ccc(C(=O)N2CCN(c3ncc(C(F)(F)F)cn3)CC2)c1)Nc1cn[nH]c(=O)c1C(F)(F)F` [I-C-1, (S)-4-(trifluoromethyl)-5-((1-(3-(4-(5-(trifluoromethyl)pyrimidin-2-yl)piperazine-1-carbonyl)-1H-pyrrol-1-yl)propan-2-yl)amino)pyridazin-3(2H)-one], the IC50 under setting [1] was below 100 nM and the IC50 under setting [2] is below 100 nM.

`CC(CC1CN(C(=O)C2CCN(c3ncc(C(F)(F)F)cn3)CC2)C1)Nc1cn[nH]c(=O)c1C(F)(F)F` [I-D-1, 4-(trifluoromethyl)-5-((1-(1-(1-(5-(trifluoromethyl)pyrimidin-2-yl)piperidine-4-carbonyl)azetidin-3-yl)propan-2-yl)amino)pyridazin-3(2H)-one]: the IC50 runs as follows: under setting [1], below 100 nM; under setting [2], below 100 nM.

Consider `O=C(NCCCCNc1cn[nH]c(=O)c1C(F)(F)F)N1CCN(c2ncc(C(F)(F)F)cn2)CC1` [I-E-1, N-(4-((6-oxo-5-(trifluoromethyl)-1,6-dihydropyridazin-4-yl)amino)butyl)-4-(5-(trifluoromethyl)pyrimidin-2-yl)piperazine-1-carboxamide], for which the IC50 under setting [1] is below 100 nM and the IC50 under setting [2] was below 100 nM.

On to `O=C(NC/C=C/CNc1cn[nH]c(=O)c1C(F)(F)F)N1CCN(c2ncc(C(F)(F)F)cn2)CC1` [I-E-2, (E)-N-(4-((6-oxo-5-(trifluoromethyl)-1,6-dihydropyridazin-4-yl)amino)but-2-en-1-yl)-4-(5-(trifluoromethyl)pyrimidin-2-yl)piperazine-1-carboxamide], for which the IC50 is, setting by setting: under setting [1], below 100 nM; under setting [2], below 100 nM.

On to `O=C(Nc1cccc(CNc2cn[nH]c(=O)c2C(F)(F)F)c1)N1CCN(c2ncc(C(F)(F)F)cn2)CC1` [I-E-7, N-(3-(((6-oxo-5-(trifluoromethyl)-1,6-dihydropyridazin-4-yl)amino)methyl)phenyl)-4-(5-(trifluoromethyl)pyrimidin-2-yl)piperazine-1-carboxamide], for which the IC50 runs as follows: under setting [1], below 100 nM; under setting [2], below 100 nM.
